{"source": "patent US20150064273A1", "about": "“Mesenchymal Stem Cells Conditioned Medium and Methods of Generating and Using the Same” (Gamida-Cell Ltd., priority 2012, published 2015)", "format_in_all_cases": "cell-based", "key": {"mesenchymal stem cells": {"tested_on": "mesenchymal stem cells", "experiment": "Mesenchymal stem cell culture with growth factors with or without nicotinamide, cell counts", "method": "Isolation: Bone marrow derived and adipose tissue derived mesenchymal cells were isolated based on their plastic adherence potential in expansion medium containing: High glucose DMEM and 10% Fetal Bovine Serum (FBS, Hyclone, Logan, Utah, USA) supplemented with 0.05 mg/ml Gentamicin (Sigma) and 2 mM L-glutamine (Biological Industries, Israel). Cells were allowed to adhere for 3-4 days and non-adherent cells were washed out with medium changes. The medium was further exchanged with fresh medium every 3-4 days.\nMaintenance and expansion: Once adherent cells reached approximately 80-90% confluency, they were detached with 0.25% trypsin-EDTA (Sigma), washed twice in DMEM and 10% Fetal Bovine Serum, with centrifugation, 400 g, 5 minutes, and re-plated at a 1:2 to 1:1000 dilution under the same culture conditions.\nMeasurement of number of cells in culture: Cell number was measured using Cedex Automated Cell Counter (Innovatis). The cells were diluted 1:2 in Trypan Blue (Sigma) and cell number was measured automatically under microscope.\nTreatment of mesenchymal cultures with nicotinamide: Mesenchymal cultures were initiated as described above, and supplemented with nicotinamide 1-15 mM alone, or in combination with growth factors or growth factors alone, incubated at 37° C. in a humidified atmosphere of 5% CO2 in air. At each passage and at each medium exchange, the cultures were supplemented with mesenchymal medium, nicotinamide and growth factors.\nMesenchymal stem cells were selected and cultured in the presence of particular growth factors (basic fibroblast growth factor—bFGF, heparin binding epidermal growth factor—HB-EGF, fibroblast growth factor 4—FGF-4 and platelet derived growth factor, homodimer, subunit B, PDGF-BB) in the presence and absence of nicotinamide for three or four passages and the number and size of the cells was calculated.\nTwo concentrations (10 and 50 ng/ml) of each one of the following factors were examined.\nIn addition, the influence of the combination: 5 mM NAM+50 ng/ml FGF4+50 ng/ml PDGF-BB was examined in comparison to an individual supplement."}, "[1]": {"tested_on": "Hepatocyte Growth Factor (HGF)", "experiment": "HGF content of MSC conditioned medium by ELISA", "details": "passage 4; 5 mM NAM, 50 ng/ml FGF4; serum- and FGF4-free medium for 24 hours", "from_the_text": "FIG. 22 is a bar graph illustrating enhancement of Hepatocyte Growth Factor (HGF) content of conditioned medium from nicotinamide and FGF4-treated MSC cultures. Bone marrow mesenchymal stem cells were isolated using Ficoll and plastic adherence method, and cultured for several passages with fetal bovine serum, with added nicotinamide and FGF4 (+NAM+FGF4), with added nicotinamide (+NAM−FGF4) and without added nicotinamide or FGF (−NAM−FGF4). Twenty four hours before passage 4, the media was changed and fresh media without fetal bovine serum or FGF4 was added. The cultured media from passage 4 cultures was collected and assayed for HGF content by ELISA. −NAM, −FGF4=control; +NAM−FGF4=5 mM NAM, +NAM+FGF4=5 mM NAM+50 ng/ml FGF4. Note the significant effect of combined FGF4 and nicotinamide on HGF secretion; Mesenchymal stem cells cultured with nicotinamide and FGF4 have enhanced expansion potential, and maintain an undifferentiated state, compared to mesenchymal stem cells cultured in unsupplemented medium, or mesenchymal stem cells cultured with added nicotinamide alone. In order to assess whether mesenchymal stem cells cultured with nicotinamide or nicotinamide and FGF4 modify the culture medium in a unique manner, secretion of biologically active molecules into the culture medium was measured by ELISA, after depletion of the FGF4 from the medium."}, "[2]": {"tested_on": "adipose derived mesenchymal stem cells", "experiment": "Adipose tissue derived MSC expansion and cell size with nicotinamide, with or without FGF4", "details": "5 mM NAM, 50 ng/ml FGF4", "method": "FIG. 15 is a graph illustrating the effect of nicotinamide, with and without FGF4 on adipose-derived MSC proliferation, through 4 passages of culture. Adipose derived mesenchymal stem cells were isolated using collagenase digestion and plastic adherence method, and cultured for several passages with fetal bovine serum. −NAM−FGF4=controls (blue diamonds), +NAM−FGF4=culture with 5 mM NAM (red squares), +NAM+FGF4=culture with 50 ng/ml FGF4 and 5 mM NAM (green triangles). Note the synergic effect of Nicotinamide and FGF4 added together on adipose-derived MSC proliferation; FIG. 16 is a graph detailing the effect of nicotinamide, with and without FGF4 on nucleated cell proliferation in adipose-derived MSC proliferation at passage 4. Adipose-derived mesenchymal stem cells were isolated and cultured as described in FIG. 15. −NAM−FGF4=controls, +NAM−FGF4=culture with 5 mM NAM, +NAM+FGF4=culture with 50 ng/ml FGF4 and 5 mM NAM. […] Cell size was analyzed by Cedex cell counter. −NAM−FGF4=controls, +NAM−FGF4=culture with 5 mM NAM, +NAM+FGF4=culture with 50 ng/ml FGF4 and 5 mM NAM. Note the smaller size of MSC cells grown in the presence of nicotinamide, and even smaller MSCs grown with nicotinamide and FGF4; Proliferation and cell size distribution in adipose-derived mesenchymal stem cells cultured with nicotinamide with or without additional FGF4 was assessed in up to 4 passages of the cultures."}}, "data": [{"compound": "NC(=O)c1cccnc1", "note": "[nicotinamide, Nicotinamide]", "values": [{"measurement": "effect on the ability of FGF4 to increase proliferation of mesenchymal stem cells", "setting": "mesenchymal stem cells; 5 mM NAM with FGF4 50 ng/ml", "result": "potentiating effect"}, {"measurement": "proliferative capacity of large batches of MSCs", "setting": "mesenchymal stem cells; cultured with nicotinamide", "result": "enhanced proliferative capacity"}, {"measurement": "HGF level in conditioned medium", "setting": "[1]", "result": "elevated levels"}, {"measurement": "size of the expanded adipose-derived mesenchymal stem cells", "setting": "[2]; Cedex cell counter", "result": "enhanced growth of populations of smaller (less differentiated) cells"}, {"measurement": "adipose derived mesenchymal stem cell expansion in culture", "setting": "[2]; up to 4 passages", "result": "substantially improved"}]}]}
